Data set [1] concerns LNCaP. In words: Antiproliferative activity against human LNCaP cells with high PSMA expression assessed as effect on cell viability incubated for 72 hrs by MTT assay. Format: functional, cell-based. On the technique in general: Tetrazolium assays rely on reduction of a dye to a coloured formazan, in cell work by metabolically active cells.
For data set [2], the system named is CWR22R. In words: Antiproliferative activity against human 22Rv1 cells with high PSMA expression assessed as effect on cell viability incubated for 72 hrs by MTT assay. The format is functional, cell-based. Particulars: 22Rv1, 72 h.
For data set [3], the system named is PC-3. The data set can be described thus: Antiproliferative activity against PSMA negative human PC-3 cells assessed as effect on cell viability incubated for 72 hrs by MTT assay. The format is functional.
A short description of data set [4]: Antiproliferative activity against PSMA negative human RWPE-1 cells assessed as effect on cell viability incubated for 72 hrs by MTT assay. Format: toxicity, cell-based. Conditions: RWPE-1 cells (PSMA negative).
In data set [5] the target is Poly [ADP-ribose] polymerase 1 (Homo sapiens, UniProt P09874). In words: Inhibition of PARP1 (unknown origin) by biotinylated NAD+-based luminescence assay.
Data set [6] has as its system CWR22R. The data set can be described thus: Induction of DNA damage in human 22Rv1 cells assessed as increase in number of gamma-H2AX foci incubated for 12 hrs by DAPI staining based immunofluorescence analysis. The format is functional, cell-based. Particulars: dose 50-200 µM.
The subject of data set [7] is CWR22R. In words: Induction of apoptosis in human 22Rv1 cells assessed as increase in cleaved caspase-3 expression at 100 uM incubated for 72 hrs by Western blot analysis. Format: functional, cell-based. (In western blotting, separated proteins are transferred to a membrane and probed.)
The test system of data set [8] is CWR22R. The data set can be described thus: Antiproliferative activity against human 22Rv1 cells assessed as reduction in cell viability at 125 uM in presence of DUPA. Format: functional, cell-based.
Data set [9] in a line: Drug uptake in PSMA positive human 22Rv1 cells at 10 uM measured after 1 to 6 hrs by LC-MS/MS analysis. Conditions: cwr22r, time 1-6 hrs. The format is ADME, cell-based.
A short description of data set [10]: Drug uptake in PSMA positive human 22Rv1 cells at 10 uM measured after 1 to 6 hrs in presence of PSMA ligand DUPA by LC-MS/MS analysis. Format: ADME, cell-based. Particulars: cwr22r, time 1-6 hrs.
A short description of data set [11]: Half-life in Sprague-Dawley rat at 100 mg/kg, po measured after 24 hrs by UPLC-MS/MS analysis. Format: ADME, organism-based. Particulars: in vivo.
A short description of data set [12]: Tmax in Sprague-Dawley rat at 100 mg/kg, po measured after 24 hrs by UPLC-MS/MS analysis. Format: ADME, organism-based. Particulars: in vivo.
Data set [13] is described as follows: Cmax in Sprague-Dawley rat at 100 mg/kg, po measured after 24 hrs by UPLC-MS/MS analysis. Format: ADME, organism-based. Particulars: in vivo.
Data set [14] is described as follows: AUC (0 to t) in Sprague-Dawley rat at 100 mg/kg, po measured after 24 hrs by UPLC-MS/MS analysis. Format: ADME, organism-based. Conditions: in vivo.
A short description of data set [15]: AUC (0 to infinity) in Sprague-Dawley rat at 100 mg/kg, po measured after 24 hrs by UPLC-MS/MS analysis. The format is ADME, organism-based. Conditions: in vivo.
Data set [16] can be described thus: Oral bioavailability in Sprague-Dawley rat at 100 mg/kg measured after 24 hrs by UPLC-MS/MS analysis. Conditions: in vivo. The format is ADME, organism-based.
Data set [17] can be described thus: Half-life in Sprague-Dawley rat at 5 mg/kg, iv measured after 24 hrs by UPLC-MS/MS analysis. Conditions: in vivo. The format is ADME, organism-based.
Data set [18] is described as follows: C0 in Sprague-Dawley rat at 5 mg/kg, iv measured after 24 hrs by UPLC-MS/MS analysis. The format is ADME, organism-based. Conditions: in vivo.
A short description of data set [19]: Volume of distribution in Sprague-Dawley rat at 5 mg/kg, iv measured after 24 hrs by UPLC-MS/MS analysis. The format is ADME, organism-based. Particulars: in vivo.
The nature of data set [20]: Clearance in Sprague-Dawley rat at 5 mg/kg, iv measured after 24 hrs by UPLC-MS/MS analysis. The format is ADME, organism-based. Particulars: in vivo.
Data set [21] in a line: AUC (0 to t) in Sprague-Dawley rat at 5 mg/kg, iv measured after 24 hrs by UPLC-MS/MS analysis. Format: ADME, organism-based. Particulars: in vivo.
Data set [22] is described as follows: AUC (0 to infinity) in Sprague-Dawley rat at 5 mg/kg, iv measured after 24 hrs by UPLC-MS/MS analysis. Conditions: in vivo. Format: ADME, organism-based.
The nature of data set [23]: Subacute toxicity in male ICR mouse assessed as decrease in body weight at 195 to 390 mg/kg, po administered via gavage for 30 days. Particulars: in vivo, 720 h, dose 195-390 mg/kg, time 30 day. Format: organism-based.
Data set [24] in a line: Subacute toxicity in male ICR mouse assessed as decrease in red blood cells at 195 to 390 mg/kg, po administered via gavage for 30 days by blood routine test. The format is organism-based. Conditions: in vivo, 720 h, dose 195-390 mg/kg, time 30 day.
A short description of data set [25]: Subacute toxicity in male ICR mouse assessed as decrease in hemoglobin at 195 to 390 mg/kg, po administered via gavage for 30 days by blood routine test. Format: organism-based. Particulars: in vivo, 720 h, dose 195-390 mg/kg, time 30 day.
The nature of data set [26]: Subacute toxicity in male ICR mouse assessed as decrease in hematocrit at 195 to 390 mg/kg, po administered via gavage for 30 days by blood routine test. The format is organism-based. Particulars: in vivo, 720 h, dose 195-390 mg/kg, time 30 day.
Data set [27] is described as follows: Subacute toxicity in male ICR mouse assessed as decrease in WBC at 195 to 390 mg/kg, po administered via gavage for 30 days by blood routine test. Conditions: in vivo, 720 h, dose 195-390 mg/kg, time 30 day. The format is organism-based.
A short description of data set [28]: Subacute toxicity in male ICR mouse assessed as decrease in neutrophil at 195 to 390 mg/kg, po administered via gavage for 30 days by blood routine test. Format: organism-based. Conditions: in vivo, 720 h, dose 195-390 mg/kg, time 30 day.
Data set [29] is described as follows: Subacute toxicity in male ICR mouse assessed as decrease in lymphocytes at 195 to 390 mg/kg, po administered via gavage for 30 days by blood routine test. The format is organism-based. Particulars: in vivo, 720 h, dose 195-390 mg/kg, time 30 day.
Data set [30] deals with CWR22R. In words: Antitumor activity against human 22Rv1 cells xenografted in male BALB/c nude mouse administered via gavage. The format is functional, cell-based. Particulars: dose 195-390 mg/kg. A general note: In xenograft studies the graft and the host belong to different species.
Data set [31] can be described thus: Toxicity in male BALB/c nude mouse xenografted with human 22Rv1 cells assessed as decrease in body weight at 195 to 390 mg/kg administered via gavage. Particulars: in vivo, po, dose 195-390 mg/kg. Format: organism-based.
Data set [32] relates to CWR22R. In words: Antitumor activity against human 22Rv1 cells xenografted in male BALB/c nude mouse assessed as tumor growth inhibition at 100 mg/kg administered via gavage relative to control. The format is functional. Particulars: 22Rv1, po, read-out: TGI.
For data set [33], the system named is CWR22R. In words: Antitumor activity against human 22Rv1 cells xenografted in male BALB/c nude mouse assessed as tumor growth inhibition at 195 to 390 mg/kg administered via gavage relative to control. The format is functional. Conditions: dose 195-390 mg/kg.
Data set [34] deals with CWR22R. The data set can be described thus: Antitumor activity against human 22Rv1 cells xenografted in male BALB/c nude mouse assessed as tumor growth inhibition at 25 mg/kg administered via gavage relative to control. The format is functional. Particulars: 22Rv1, po, read-out: TGI.
Data set [35] has as its system CWR22R. In words: Antitumor activity against human 22Rv1 cells xenografted in male BALB/c nude mouse assessed as tumor growth inhibition at 50 mg/kg administered via gavage relative to control. The format is functional. Particulars: 22Rv1, po, read-out: TGI.
Data set [36] in a line: Toxicity in male BALB/c nude mouse xenografted with human 22Rv1 cells assessed as decrease in body weight at 25 to 100 mg/kg administered via gavage. The format is organism-based. Particulars: in vivo, po, dose 25-100 mg/kg.
The nature of data set [37]: Toxicity in male BALB/c nude mouse xenografted with human 22Rv1 cells assessed as decrease in WBC at 25 to 100 mg/kg administered via gavage by routine blood test. Format: organism-based. Particulars: in vivo, po, dose 25-100 mg/kg.
Data set [38] in a line: Toxicity in male BALB/c nude mouse xenografted with human 22Rv1 cells assessed as decrease in neutrophils at 25 to 100 mg/kg administered via gavage by routine blood test. Format: organism-based. Conditions: in vivo, po, dose 25-100 mg/kg.
The nature of data set [39]: Toxicity in male BALB/c nude mouse xenografted with human 22Rv1 cells assessed as decrease in lymphocytes at 25 to 100 mg/kg administered via gavage by routine blood test. Particulars: in vivo, po, dose 25-100 mg/kg. The format is organism-based.
Data set [40] can be described thus: Toxicity in male BALB/c nude mouse xenografted with human 22Rv1 cells assessed as decrease in RBC at 25 to 100 mg/kg administered via gavage by routine blood test. Format: organism-based. Particulars: in vivo, po, dose 25-100 mg/kg.

pIC50: −log10 of the molar value.

Chain of Poly [ADP-ribose] polymerase 1 (P09874 whole entry): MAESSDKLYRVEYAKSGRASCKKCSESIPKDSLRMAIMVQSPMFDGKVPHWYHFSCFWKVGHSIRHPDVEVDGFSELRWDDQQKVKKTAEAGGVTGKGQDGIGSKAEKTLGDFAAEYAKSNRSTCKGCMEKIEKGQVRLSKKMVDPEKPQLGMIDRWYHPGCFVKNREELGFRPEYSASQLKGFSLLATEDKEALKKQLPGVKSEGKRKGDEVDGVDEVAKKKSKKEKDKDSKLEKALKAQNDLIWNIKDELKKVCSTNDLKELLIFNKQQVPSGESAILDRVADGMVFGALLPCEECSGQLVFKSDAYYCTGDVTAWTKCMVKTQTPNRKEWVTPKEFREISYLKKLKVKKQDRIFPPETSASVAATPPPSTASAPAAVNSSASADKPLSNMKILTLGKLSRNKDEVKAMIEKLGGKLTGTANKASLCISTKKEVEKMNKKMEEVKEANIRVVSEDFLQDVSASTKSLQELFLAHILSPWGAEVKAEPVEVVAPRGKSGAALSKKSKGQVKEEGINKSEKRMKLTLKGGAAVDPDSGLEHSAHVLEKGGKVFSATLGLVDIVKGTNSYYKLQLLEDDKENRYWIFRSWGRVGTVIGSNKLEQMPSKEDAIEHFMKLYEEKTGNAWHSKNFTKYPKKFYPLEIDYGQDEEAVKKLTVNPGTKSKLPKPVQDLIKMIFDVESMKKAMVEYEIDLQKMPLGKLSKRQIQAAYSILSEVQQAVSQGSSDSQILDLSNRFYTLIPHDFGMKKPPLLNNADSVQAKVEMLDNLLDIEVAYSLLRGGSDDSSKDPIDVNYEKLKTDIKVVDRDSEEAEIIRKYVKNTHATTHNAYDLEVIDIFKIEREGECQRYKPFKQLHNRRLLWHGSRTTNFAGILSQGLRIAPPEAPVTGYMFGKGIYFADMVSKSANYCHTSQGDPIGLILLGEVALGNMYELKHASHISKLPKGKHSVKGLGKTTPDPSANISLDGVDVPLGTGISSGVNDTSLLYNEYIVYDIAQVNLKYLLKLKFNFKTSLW

As usually defined, the pIC50 is the negative decadic logarithm of the IC50, by convention in mol/L. As a reminder, the CC50 is the concentration giving 50% cytotoxicity. Broadly, the half-life is the time needed for the level to fall by half in the phase considered. As a reminder, the Tmax is the time at which the peak concentration occurs. For orientation: Cmax means the peak of the concentration-time curve. A word on the AUC(0-t): it is the area under the concentration-time curve up to a stated or last time point. A low value points to low exposure. As usually defined, the AUC(0-inf) is total exposure, with the tail of the curve extrapolated. A higher AUC(0-inf) goes with more exposure. Usually bioavailability stands for the share of a dose that reaches the circulation, judged against a reference dose that is usually intravenous. In general, Vd refers to the apparent volume that relates the amount in the body to the concentration in plasma or blood. By clearance is commonly meant the volume of plasma or blood freed of the substance per unit of time. Low values mean inefficient removal, high ones efficient removal. By TGI is commonly meant how far tumour growth fell short of that in controls. Regarding `O=C(O)CC[C@H](NC(=O)N[C@@H](CCCCNC(=O)CCC(=O)NC1(C(=O)N2CCN(C(=O)c3cc(Cc4n[nH]c(=O)c5ccccc45)ccc3F)CC2)CC1)C(=O)O)C(=O)O`, the pIC50 in data set [1] was 4.09; in data set [2], 4.07; in [5], 9.00. Besides, in [3], the half-maximal cytotoxic concentration (CC50) was over 1000 µM. The CC50 at 72 h in [4] was over 1000 µM. In addition, the Activity result in data set [6] was “Dose-dependent-effect”; in data set [7] it was “Active; Similar To Olaparib-Treated Group”; in data set [8], “Not active; Drug Mode Of Action Appears To Be Via Binding To Psma Receptor”; in data set [23], “Non-toxic”; in [24], “Non-toxic”; in data set [25] it was “Non-toxic”. Also, the Activity result in [26] was “Non-toxic”; in data set [27], “Non-toxic”; in [28], “Non-toxic”; in [29], “Non-toxic”; in data set [30], “Dose-dependent-effect”; in [31] it was “Non-toxic”. Also, the Activity entry in [36], in data set [37], in data set [38], in data set [39] and in data set [40] was “Non-toxic” in each case. Further, the Drug uptake entry in data set [9] is “Active”; in [10], “Not_active”. The half-life in [11] is 1.02 h; in data set [17] it was 0.362 h. Besides, the Tmax in data set [12] worked out at 1 h. This molecule also displayed a Cmax in [13] of 7310 ng/mL. The exposure AUC(0-t) at 24 h in data set [14] was 27400 ng·h/mL; in [21], 7310 ng·h/mL. Also, the AUC(0-inf) was 27800 ng·h/mL in data set [15] and 7460 ng·h/mL in [22]. In data set [16], the bioavailability was found to be 18.6%. In data set [18], this molecule had a C0 at 24 h of 13500 ng/mL. In data set [19], this molecule came in with a volume of distribution (Vd) of 0.383 L/kg. In addition, in [20], the clearance was 12.2 mL/min/kg. For the same molecule, the inhibition in vivo at 100 mg/kg in [32] amounted to 70%. Moreover, the TGI in [33] turned out to be 73%. Moreover, in [34], the inhibition in vivo at 25 mg/kg was 52%. In addition, the inhibition in vivo at 50 mg/kg in [35] turned out to be 65%.

`O=C(O)CC[C@H](NC(=O)N[C@@H](CCCCNC(=O)CCC(=O)NCCCC(=O)N1CCN(C(=O)c2cc(Cc3n[nH]c(=O)c4ccccc34)ccc2F)CC1)C(=O)O)C(=O)O`: the figures for the pIC50 in data set [1] and in data set [2] were 3.79 and 3.87, respectively. Besides, the 50% cytotoxic concentration (CC50) in [3] is over 1000 µM. The CC50 at 72 h in data set [4] is over 1000 µM.
